In brackets after ≈: the same amount, converted by molar mass. Activity calls are given as the source filed them. The calls are words filed in the database; no cut-off is given here.

One assay has as its system Leishmania major. Nature of the assay: Antileishmanial activity against Leishmania major egfp promastigotes at 10 ug/ml. As to conditions: for inhibition of growth at 10 µg/mL: read-out: GI. The assay is classed as functional.
A further assay relates to HeLa. Nature of the assay: Cytotoxicity against human HeLa cells lines by MTT assay. The assay is classed as cell-based.

For orientation: IC50 means the midpoint of a concentration-inhibition curve. A lower IC50 goes with higher potency. With `C=CCCCCCCCC(=O)N(C)[C@@H](Cc1ccccc1)C(=O)N[C@H]1CCCNC1=O` [CILIATAMIDES C], in the assay with Leishmania major, the outcome was inactive. Also, in the assay on HeLa, the IC50 was determined as 50 µg/mL (≈ 117 µM).
For the compound `C=CCCCCCCCC(=O)N(C)[C@@H](Cc1ccccc1)C(=O)N[C@H]1CCCCNC1=O` [CILIATAMIDES A], the inhibition of growth at 10 µg/mL in the assay with Leishmania major was 50%. Moreover, half-maximal inhibition in the assay with HeLa (IC50) required 50 µg/mL (≈ 113 µM).
Turning to `CCCCCCCC(=O)N(C)[C@@H](Cc1ccccc1)C(=O)N[C@H]1CCCCNC1=O` [CILIATAMIDES B], in the assay with Leishmania major, the inhibition of growth at 10 µg/mL came out at 45.5%. The same compound showed an IC50 in the assay with HeLa of 4.5 µg/mL (≈ 10.8 µM).

The record behind these values is ChEMBL document CHEMBL1144807, “Ciliatamides A-C, bioactive lipopeptides from the deep-sea sponge Aaptos ciliata” (J Nat Prod, 2008).
